Literature values as cited in US10227338B2, “Substituted benzenesulfonamides as sodium channel blockers” (Daewoong Pharmaceutical Co., Ltd., priority 2015, dated 2019).

Test system: neuropathic pain

NCC1(CC(=O)O)CCCCC1 [gabapentin]
effective for % of the patients: 60%
